Key:
Burkholderia cepacia = experiment: Minimum inhibitory concentration, IPBC and butoxydiglycol in protein shampoo (Example 4); format: cell-based
Method: Sample protein shampoos I, J and K were formed. Sample I contained only IPBC. Sample J contained only butoxydiglycol. Sample K contained both IPBC and butoxydiglycol. […] Synergism for the IPBC/butoxydiglycol studies in Table 5 was calculated by the method described in C. E. Kull et al., “Mixtures of Quaternary Ammonium Compounds and Long-Chain Fatty Acids as Antifungal Agents”, Applied Microbiology, 4:538-541(1961). The Kull method determines the quantity of each component in a mixture which is required to reach a given microbiological endpoint (e.g., MIC), and compares that amount with the quantity of the pure component necessary to reach the same endpoint. According to this method, a synergism index or value QA/QB+Qa/Qb is determined, wherein: […]

[1] = Solubility testing of propynyl compounds in solvents; format: physicochemical; details: for Solubility in Butanediol Anhydrous: solvent Butanediol Anhydrous; for Solubility in Butoxydiglycol: solvent Butoxydiglycol; for Solubility in Sorbitol: solvent Sorbitol
From the text: The compounds used in Example 1 are identified below in Table 1. The results of the solubility testing is shown below in Table 2.

[2] = system: mixed bacteria, comprising E. coli (ATCC 8739), P. aeruginosa (ATCC 9027), and S. aureus (ATCC 6538); experiment: Inhibition of mixed bacteria by propynyl compound solutions in protein shampoo (Example 2); format: cell-based; details: Table 3, 500 ppm in protein shampoo (GPL 1000 ppm), solvent butoxydiglycol (A, E) or butylene glycol (B, C, D)
Method: (§1) Each of the samples A to E is a protein shampoo comprising a propynyl compound. The samples were tested for antibacterial and antifungal properties by testing for inhibition of a mixed bacteria, comprising E. coli (ATCC 8739), P. aeruginosa (ATCC 9027), and S. aureus (ATCC 6538), and inhibition of a mixed fungi, comprising A. niger (ATCC 16404) and C. albicans (ATCC 10231).
(§2) The samples “GPL” and “NP” are controls. “GPL” is 0. 1% Glydantg Plus, a liquid antimicrobial preservative available from Lonza Inc., Fair Lawn, N.J., containing a dimethyol dimethyl hydantoin formaldehyde donor. Glydant® Plus is used in personal care formulations in cosmetics and personal care products.
(§3) In Table 3, samples A and E consist of an iodopropynyl compound in a butoxydiglycol solvent. Samples C and D consist of an iodopropynyl compound in a butylene glycol solvent, and Sample B consists of a propynyl compound in a butylene glycol solvent.

[3] = system: mixed fungi, comprising A. niger (ATCC 16404) and C. albicans (ATCC 10231); experiment: Inhibition of mixed fungi by propynyl compound solutions in protein shampoo (Example 2); format: cell-based; details: Table 3, 500 ppm in protein shampoo (GPL 1000 ppm), solvent butoxydiglycol (A, E) or butylene glycol (B, C, D)
Method: as §1, §2, §3

Bacteria = experiment: Antibacterial screening of propynyl compositions in protein shampoo formulations (Example 3); format: cell-based; details: Table 4, 500 ppm in protein shampoo pH 7.0 (GPL 1000 ppm), solvent butoxydiglycol (A, H) or butylene glycol (F, G)
From the text: (§4) Samples of a standard protein shampoo (pH-7.0) were formed. The shampoo contained the following preservative-free ingredients, w/w % Samples A, […] and H contained active preservative iodopropynyl agents in a solvent. Samples A and H contained butoxydiglycol as the solvent. Samples F and G (containing a propynyl compound rather than a halopropynyl compound) contained butylene glycol as the solvent.

Fungi = experiment: Antifungal screening of propynyl compositions in protein shampoo formulations (Example 3); format: cell-based; details: Table 4, 500 ppm in protein shampoo pH 7.0 (GPL 1000 ppm), solvent butoxydiglycol (A, H) or butylene glycol (F, G)
From the text: as §4

Row | SMILES | MIC (Burkholderia cepacia; Burkholderia cepacia, single active alone in protein shampoo, complete inhibition of growth, read-out: MIC, ppm active) | Concentration (ppm) QB (Burkholderia cepacia; Table 6, parameter MIC) | Solubility in Butanediol Anhydrous [1] | Solubility in Butoxydiglycol [1] | DAY 0 Bacteria (cfu/ml) [2] | DAY 14 Bacteria (cfu/ml) [2] | DAY 28 Bacteria (cfu/ml) [2] | DAY 0 Fungi (cfu/ml) [3] | DAY 14 Fungi (cfu/ml) [3] | DAY 28 Fungi (cfu/ml) [3] | DAY 0 Bacteria (cfu/ml) (Bacteria) | DAY 14 Bacteria (cfu/ml) (Bacteria) | DAY 28 Bacteria (cfu/ml) (Bacteria) | DAY 0 Fungi (cfu/ml) (Fungi) | DAY 14 Fungi (cfu/ml) (Fungi) | DAY 28 Fungi (cfu/ml) (Fungi) | Solubility in Sorbitol [1] | Concentration (ppm) QA (Burkholderia cepacia; Table 6, parameter MIC) | MIC, ppm active (Burkholderia cepacia; single active alone in protein shampoo, complete inhibition of growth)
1 | CCCCOCCOCCO [Butoxydiglycol, 2-(2-butoxyethoxy)ethanol] | 12.5 mg/mL | 12,500 ppm |  |  |  |  |  |  |  |  |  |  |  |  |  |  |  |  | 
2 | O=c1c(Cl)cn(CC#CI)c(=O)n1CC#CI [Compound L58, 1N,3N-Diiodopropyn-2-yl-5-chlorouracil] |  |  | − | + | 8.00 × 10^6 cfu/ml | <10 cfu/ml | <10 cfu/ml | 1.00 × 10^5 cfu/ml | <10 cfu/ml | <10 cfu/ml | 9.00 × 10^6 cfu/ml | <10 cfu/ml | <10 cfu/ml | 1.00 × 10^5 cfu/ml | <10 cfu/ml | <10 cfu/ml |  |  | 
3 | O=C(C#CI)c1ccc(C(F)(F)F)cc1 [Compound L74, 3-iodo-1-(4-trifluoromethylphenyl)-2-propyn-1-one] |  |  | + | + | 8.00 × 10^6 cfu/ml | >3.0 × 10^3 cfu/ml | >10^3 cfu/ml | 1.00 × 10^5 cfu/ml | <10 cfu/ml | >10^3 cfu/ml |  |  |  |  |  |  |  |  | 
4 | OC(C#CI)c1cccs1 (centres unmarked) [Compound L90, 2-(3-iodo-2-propyn-1-ol-yl) thiophene] |  |  | + | + | 7.00 × 10^6 cfu/ml | >3.0 × 10^3 cfu/ml | >10^3 cfu/ml | 1.00 × 10^5 cfu/ml | <10 cfu/ml | >10^3 cfu/ml |  |  |  |  |  |  | − |  | 
5 | OC(C#CI)c1ccc(Cl)s1 (centres unmarked) [Compound L100] |  |  |  |  |  |  |  |  |  |  | 8.00 × 10^6 cfu/ml | 2.00 × 10^1 cfu/ml | 200 cfu/ml | 1.00 × 10^5 cfu/ml | <10 cfu/ml | <10 cfu/ml |  |  | 
6 | Cc1ccc(C(Cn2ccnc2)OCC#CI)cc1 (centres unmarked) [Compound L103, 2-(1-imidazolyl)-1-(4-methylphenyl)ethyl iodopropargyl ether] |  |  | − | + | 7.00 × 10^6 cfu/ml | <10 cfu/ml | <10 cfu/ml | 1.00 × 10^5 cfu/ml | 500 cfu/ml | 400 cfu/ml |  |  |  |  |  |  | − |  | 
7 | C#CC(=O)c1ccc(C#N)cc1 [Compound L106, 1-(4-cyanophenyl)-2-propyn-1-one] |  |  | + | + |  |  |  |  |  |  | 8.00 × 10^6 cfu/ml | >1.0 × 10^4 cfu/ml | <10 cfu/ml | 1.00 × 10^5 cfu/ml | >1.0 × 10^3 cfu/ml | 100 cfu/ml | − |  | 
8 | O=C(O)CCOCC#CI [Compound L111, Iodopropynyloxypropionic Acid] |  |  |  |  |  |  |  |  |  |  | 8.00 × 10^6 cfu/ml | <10 cfu/ml | <10 cfu/ml | 8.00 × 10^6 cfu/ml | <10 cfu/ml | <10 cfu/ml |  |  | 
9 | CCCCNC(=O)OCC#CI [IPBC, 3-iodo-2-propynyl butyl carbamate] |  |  |  |  |  |  |  |  |  |  |  |  |  |  |  |  |  | 1,250 ppm | 1,250 ppm

— patent US20030039580A1, “Stable preservative formulations comprising halopropynyl compounds and butoxydiglycol solvent” (Lonza Inc., priority 2001, published 2003)
